{
  "source": "PubChem BioAssay AID1963868",
  "about": "(Molecular Pharmacology Branch, DTP, NCI, 2024)",
  "tested_on": "KRAS PDC tumor spheroids (HUVEC+MSC), viability",
  "test": "Anticancer human tumor 254851-301-R-J1-PDC patient-derived colon carcinoma cell line growth inhibition [KRAS2]",
  "conditions": "for viability, T/C: stronger effect = lower value",
  "in_short": "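KRAS-mutant tumor cells were grown as spheroids with HUVEC endothelial cells and human MSCs as stroma. Targeted agents were tested alone and with KRAS pathway inhibitors. Doses started at or near clinical Cmax, or 10 microM, descending half-log.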",
  "key": {"[1]": {"conditions": "curve of first compound, second compound 0.1 µM"}, "[2]": {"conditions": "curve of first compound, second compound 0.316 µM"}, "[3]": {"conditions": "curve of first compound, second compound 1 µM"}, "[4]": {"conditions": "curve of first compound, second compound 3.16 µM"}, "[5]": {"conditions": "curve of first compound, second compound 10 µM"}, "[6]": {"conditions": "second compound 0.1 µM, first compound 0.0316 µM"}, "[7]": {"conditions": "second compound 0.1 µM, first compound 0.1 µM"}, "[8]": {"conditions": "second compound 0.1 µM, first compound 0.316 µM"}, "[9]": {"conditions": "second compound 0.1 µM, first compound 1 µM"}, "[10]": {"conditions": "second compound 0.1 µM, first compound 3.16 µM"}, "[11]": {"conditions": "second compound 0.1 µM, first compound 10 µM"}, "[12]": {"conditions": "second compound 0.316 µM, first compound 0.0316 µM"}, "[13]": {"conditions": "second compound 0.316 µM, first compound 0.1 µM"}, "[14]": {"conditions": "second compound 0.316 µM, first compound 0.316 µM"}, "[15]": {"conditions": "second compound 0.316 µM, first compound 1 µM"}, "[16]": {"conditions": "second compound 0.316 µM, first compound 3.16 µM"}, "[17]": {"conditions": "second compound 0.316 µM, first compound 10 µM"}, "[18]": {"conditions": "second compound 1 µM, first compound 0.0316 µM"}, "[19]": {"conditions": "second compound 1 µM, first compound 0.1 µM"}, "[20]": {"conditions": "second compound 1 µM, first compound 0.316 µM"}, "[21]": {"conditions": "second compound 1 µM, first compound 1 µM"}, "[22]": {"conditions": "second compound 1 µM, first compound 3.16 µM"}, "[23]": {"conditions": "second compound 1 µM, first compound 10 µM"}, "[24]": {"conditions": "second compound 3.16 µM, first compound 0.0316 µM"}, "[25]": {"conditions": "second compound 3.16 µM, first compound 0.1 µM"}, "[26]": {"conditions": "second compound 3.16 µM, first compound 0.316 µM"}, "[27]": {"conditions": "second compound 3.16 µM, first compound 1 µM"}, "[28]": {"conditions": "second compound 3.16 µM, first compound 3.16 µM"}, "[29]": {"conditions": "second compound 3.16 µM, first compound 10 µM"}, "[30]": {"conditions": "second compound 10 µM, first compound 0.0316 µM"}, "[31]": {"conditions": "second compound 10 µM, first compound 0.1 µM"}, "[32]": {"conditions": "second compound 10 µM, first compound 0.316 µM"}, "[33]": {"conditions": "second compound 10 µM, first compound 1 µM"}, "[34]": {"conditions": "second compound 10 µM, first compound 3.16 µM"}, "[35]": {"conditions": "second compound 10 µM, first compound 10 µM"}},
  "data": [
    {"compound": "COc1cc2nccc(Oc3ccc(NC(=O)C4(C(=O)Nc5ccc(F)cc5)CC4)cc3)c2cc1OC", "note": "+ C=CC(=O)N1CCN(c2nc(=O)n(-c3c(C)ccnc3C(C)C)c3nc(-c4c(O)cccc4F)c(F)cc23)C(C)C1;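 also: spheroids exposed to compounds for seven days before readout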;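 as to viability, T/C: 100% = DMSO vehicle control luminescence of the spheroids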", "values": [
      {"measurement": "IC50", "setting": "[1]", "result": "> 10", "unit": "µM"},
      {"measurement": "IC50", "setting": "[2]", "result": "> 10", "unit": "µM"},
      {"measurement": "IC50", "setting": "[3]", "result": "> 10", "unit": "µM"},
      {"measurement": "IC50", "setting": "[4]", "result": "> 10", "unit": "µM"},
      {"measurement": "IC50", "setting": "[5]", "result": "> 10", "unit": "µM"},
      {"measurement": "viability, T/C", "setting": "[6]", "result": 108, "unit": "%"},
      {"measurement": "viability, T/C", "setting": "[7]", "result": 102, "unit": "%"},
      {"measurement": "viability, T/C", "setting": "[8]", "result": 99.3, "unit": "%"},
      {"measurement": "viability, T/C", "setting": "[9]", "result": 110, "unit": "%"},
      {"measurement": "viability, T/C", "setting": "[10]", "result": 104, "unit": "%"},
      {"measurement": "viability, T/C", "setting": "[11]", "result": 65.9, "unit": "%"},
      {"measurement": "viability, T/C", "setting": "[12]", "result": 104, "unit": "%"},
      {"measurement": "viability, T/C", "setting": "[13]", "result": 107, "unit": "%"},
      {"measurement": "viability, T/C", "setting": "[14]", "result": 113, "unit": "%"},
      {"measurement": "viability, T/C", "setting": "[15]", "result": 110, "unit": "%"},
      {"measurement": "viability, T/C", "setting": "[16]", "result": 99.4, "unit": "%"},
      {"measurement": "viability, T/C", "setting": "[17]", "result": 57.4, "unit": "%"},
      {"measurement": "viability, T/C", "setting": "[18]", "result": 109, "unit": "%"},
      {"measurement": "viability, T/C", "setting": "[19]", "result": 115, "unit": "%"},
      {"measurement": "viability, T/C", "setting": "[20]", "result": 113, "unit": "%"},
      {"measurement": "viability, T/C", "setting": "[21]", "result": 103, "unit": "%"},
      {"measurement": "viability, T/C", "setting": "[22]", "result": 104, "unit": "%"},
      {"measurement": "viability, T/C", "setting": "[23]", "result": 74.8, "unit": "%"},
      {"measurement": "viability, T/C", "setting": "[24]", "result": 114, "unit": "%"},
      {"measurement": "viability, T/C", "setting": "[25]", "result": 112, "unit": "%"},
      {"measurement": "viability, T/C", "setting": "[26]", "result": 111, "unit": "%"},
      {"measurement": "viability, T/C", "setting": "[27]", "result": 117, "unit": "%"},
      {"measurement": "viability, T/C", "setting": "[28]", "result": 108, "unit": "%"},
      {"measurement": "viability, T/C", "setting": "[29]", "result": 72.1, "unit": "%"},
      {"measurement": "viability, T/C", "setting": "[30]", "result": 131, "unit": "%"},
      {"measurement": "viability, T/C", "setting": "[31]", "result": 115, "unit": "%"},
      {"measurement": "viability, T/C", "setting": "[32]", "result": 111, "unit": "%"},
      {"measurement": "viability, T/C", "setting": "[33]", "result": 112, "unit": "%"},
      {"measurement": "viability, T/C", "setting": "[34]", "result": 90.8, "unit": "%"},
      {"measurement": "viability, T/C", "setting": "[35]", "result": 62.6, "unit": "%"}
    ]},
    {"compound": "CC1(C)CCC(CN2CCN(c3ccc(C(=O)NS(=O)(=O)c4ccc(NCC5CCOCC5)c([N+](=O)[O-])c4)c(Oc4cnc5[nH]ccc5c4)c3)CC2)=C(c2ccc(Cl)cc2)C1", "note": "+ COc1cc2nc(C)nc(NC(C)c3cc(N)cc(C(F)(F)F)c3)c2cc1OC1CCOC1", "values": [
      {"measurement": "IC50", "setting": "[1]", "result": "> 10", "unit": "µM"},
      {"measurement": "IC50", "setting": "[2]", "result": "> 10", "unit": "µM"},
      {"measurement": "IC50", "setting": "[3]", "result": "> 10", "unit": "µM"},
      {"measurement": "IC50", "setting": "[4]", "result": 3.72, "unit": "µM"},
      {"measurement": "IC50", "setting": "[5]", "result": 1.73, "unit": "µM"},
      {"measurement": "viability, T/C", "setting": "[6]", "result": 103, "unit": "%"},
      {"measurement": "viability, T/C", "setting": "[7]", "result": 95, "unit": "%"},
      {"measurement": "viability, T/C", "setting": "[8]", "result": 95.7, "unit": "%"},
      {"measurement": "viability, T/C", "setting": "[9]", "result": 97.6, "unit": "%"},
      {"measurement": "viability, T/C", "setting": "[10]", "result": 91.2, "unit": "%"},
      {"measurement": "viability, T/C", "setting": "[11]", "result": 83.2, "unit": "%"},
      {"measurement": "viability, T/C", "setting": "[12]", "result": 86.5, "unit": "%"},
      {"measurement": "viability, T/C", "setting": "[13]", "result": 83.9, "unit": "%"},
      {"measurement": "viability, T/C", "setting": "[14]", "result": 92, "unit": "%"},
      {"measurement": "viability, T/C", "setting": "[15]", "result": 79.3, "unit": "%"},
      {"measurement": "viability, T/C", "setting": "[16]", "result": 88.6, "unit": "%"},
      {"measurement": "viability, T/C", "setting": "[17]", "result": 66.4, "unit": "%"},
      {"measurement": "viability, T/C", "setting": "[18]", "result": 88.7, "unit": "%"},
      {"measurement": "viability, T/C", "setting": "[19]", "result": 88.1, "unit": "%"},
      {"measurement": "viability, T/C", "setting": "[20]", "result": 79.8, "unit": "%"},
      {"measurement": "viability, T/C", "setting": "[21]", "result": 78.1, "unit": "%"},
      {"measurement": "viability, T/C", "setting": "[22]", "result": 74.9, "unit": "%"},
      {"measurement": "viability, T/C", "setting": "[23]", "result": 49.2, "unit": "%"},
      {"measurement": "viability, T/C", "setting": "[24]", "result": 82.2, "unit": "%"},
      {"measurement": "viability, T/C", "setting": "[25]", "result": 89.3, "unit": "%"},
      {"measurement": "viability, T/C", "setting": "[26]", "result": 81.2, "unit": "%"},
      {"measurement": "viability, T/C", "setting": "[27]", "result": 76.4, "unit": "%"},
      {"measurement": "viability, T/C", "setting": "[28]", "result": 53.3, "unit": "%"},
      {"measurement": "viability, T/C", "setting": "[29]", "result": 29.6, "unit": "%"},
      {"measurement": "viability, T/C", "setting": "[30]", "result": 86.6, "unit": "%"},
      {"measurement": "viability, T/C", "setting": "[31]", "result": 83.8, "unit": "%"},
      {"measurement": "viability, T/C", "setting": "[32]", "result": 72.5, "unit": "%"},
      {"measurement": "viability, T/C", "setting": "[33]", "result": 73.9, "unit": "%"},
      {"measurement": "viability, T/C", "setting": "[34]", "result": 24.2, "unit": "%"},
      {"measurement": "viability, T/C", "setting": "[35]", "result": 6.7, "unit": "%"}
    ]},
    {"compound": "CC(=O)Nc1cccc(-n2c(=O)n(C3CC3)c(=O)c3c(Nc4ccc(I)cc4F)n(C)c(=O)c(C)c32)c1", "values": [
      {"measurement": "viability, T/C", "setting": "compound 0.0001 µM", "result": "105% [middle of 5 runs]"},
      {"measurement": "viability, T/C", "setting": "compound 0.000316 µM", "result": "96.8% [middle of 5 runs]"},
      {"measurement": "viability, T/C", "setting": "compound 0.001 µM", "result": "91.9% [middle of 5 runs]"},
      {"measurement": "viability, T/C", "setting": "compound 0.00316 µM", "result": "75.8% [middle of 5 runs]"},
      {"measurement": "viability, T/C", "setting": "compound 0.01 µM", "result": "26.8% [middle of 5 runs]"},
      {"measurement": "viability, T/C", "setting": "compound 0.0316 µM", "result": "3.1% [middle of 5 runs]"},
      {"measurement": "IC50", "setting": "curve of compound", "result": "5.78 nM [middle of 5 runs]"}
    ]}
  ]
}
